Test results published in US20120088247A1, “MATERIALS AND METHODS FOR TREATING PATIENTS WITH TAXOXIFEN” (Indian University Research & Technology Corporatio, priority 2009, published 2012).

Assays:
[1] = Plasma concentrations of tamoxifen and its metabolites (HPLC) in women with breast cancer taking tamoxifen, by UGT2B7 genotype and CYP2D6 score
Source text: Patients. […] Subjects for the registry were recruited from the Breast Oncology Program at the University of Michigan Comprehensive Cancer Center and the Indiana University Cancer Center. […] Patients were enrolled after they had completed all primary surgery, radiation, and adjuvant chemotherapy. Specimens and data from this registry has been sed for several other studies, as reported previously,[16],[6],[17].
Study design. […] At the indicated time points, medical histories, including a comprehensive list of current medications, were obtained, and blood samples (5 mL) were drawn. […] Blood was collected in heparin tubes, and plasma was separated within 1 hour of blood collection by centrifugation at 2060×g. All samples (plasma and whole blood) were transferred to cryogenic vials (Corning, Cambridge, Mass.), shipped to the laboratory of the Division of Clinical Pharmacology, Indiana University, on dry ice, and stored at −80° C. until analysis.
UGT 2B7 genotyping. Genomic deoxyribonucleic acid (DNA) was extracted from the leukocyte portion of whole blood by use of a QJAamp DNA Blood Mini Kit (Qiagen, Valencia, Calif.) and used for genotyping of UGT2B7 variants. UGT2B7 codon 268 genotypes were determined by real-time PCR assays using the TaqMan Drug Metabolism Genotyping Assay C—32449742—20 (Applied Biosystems, Foster City, Calif.) in the ABI 7900HT sequence detection system equipped with an autoloader in the Functional Genomics Core Facility at the Penn State College of Medicine. […] The same primers were used for both PCR and sequencing: sense, 5′-[…]-3′ (SEQ ID. No. 3), located +642-+670 from the UGT2B7 translation start site); and antisense, 5′-[…]-3′ (SEQ. ID. No. 4), located +1555-+1597 from the UGT2B7 translation start site.
CYP2D6 genotyping. Genomic DNA was extracted from whole blood. CYP2D6 genotyping was conducted using two different genotyping methods: The AmpliChip CYP450 Test (Roche Diagnostics, Indianapolis, Ind.) and the Luminex CYP450C CYP2D6 assay (TM Biosciences). The AmpliChip was used for 129 of the DNA samples. It tests for 33 CYP2D6 alleles (ie, *1 to *10AB, *11, *14A, *14B, *15, *17, *19, *20, *25, *26, *29 to *31, *35, *36, *40, *41, *1N, *2xN, *4xN, *10xN, *17xN, *35xN, and *41xN). The remaining 60 samples were genotyped using the Luminex CYP450 Test. It tests for 16 CYP2D6 alleles (ie, *2 through *12, *14, *15, *17, and *41). The genotypes of approximately 10-20% of the samples were confirmed by running both assays or by using independent Taqman or restriction fragment length polymorphism (RFLP) assays.
CYP2D6 Gene Score. The CYP2D6 alleles were assigned a value that reflects the expected relative activity of the CYP2D6 enzyme for which they code. Accordingly, fully functional CYP2D6 alleles (e.g. *1, *2, *33, *35) were assigned a score of 1. CYP2D6 alleles associated with reduced enzyme activity (e.g. *9,*10, *17, *29, *37, *41, *45, *46) were scored as 0.5.
CYP2D6 Inhibition Factor and CYP2D6 Activity Score. After calculating the expected activity of the CYP2D6 enzyme according to the genotype, the possible effects of known CYP2D6 inhibitors on the performance of the CYP2D6 protein were incorporated. […] This rule defines the CYP2D6 inhibition factor. The CYP2D6 Activity Score is expressed as the product of multiplying the CYP2D6 Gene Score by the Inhibitor factor, which is defined in the following equation: activity score=(gene score×inhibition factor),
In presenting CYP2D6 activity score data, an extensive metabolizer (EM) was defined as an individual with an activity score greater than 2; a poor metabolizer (PM) was defined with an activity score less than 1; and an intermediate metabolizer (IM) as an individual who has a score between 1 and 2.

[2] = literature refs [18],[19]; cited from earlier work

CC/C(=C(\c1ccccc1)c1ccc(OCCNC)cc1)c1ccccc1 [N-desmethyl-tamoxifen]
Association of plasma concentration with UGT2B7 genotype ([1]; FIG. 1, P<0.05 considered significant): not significantly associated | Mean plasma concentration, percent larger in the *2/*2 group ([1]; UGT2B7 *2/*2 group (FIG. 1A, 1D)): 42%

CC/C(=C(\c1ccc(O)cc1)c1ccc(OCCNC)cc1)c1ccccc1 [endoxifen, 4-hydroxy-N-desmethyl-tamoxifen]
Increase in concentration due to gene-gene interaction ([1]; female, human, in vivo): 220% | Increase in endoxifen concentration ([1]; female, human, in vivo): 58% | Mean plasma endoxifen concentration, percent higher in UGT2B7*2/*2 group than in each of *1/*2 and *1/*1 groups ([1]; female, human, in vivo): 34% | Range of mean plasma endoxifen concentration by compound UGT2B7 genotype and CYP2D6 score ([1]; female, human, in vivo): 12 to 100 nM | Range of mean plasma endoxifen concentration over combined UGT2B7 genotype and CYP2D6 score groups ([1]; female, human, in vivo): 19 to 107 nM | Association of plasma concentration with UGT2B7 genotype ([1]; in vivo): significant

CC/C(=C(\c1ccccc1)c1ccc(OCCN(C)C)cc1)c1ccccc1 [tamoxifen, Tamoxifen]
half-life [2]: 120 to 170 h
